{
  "source": "patent US10899639B2",
  "about": "“Composition and method for inhibiting microbial adhesion on surfaces” (SOLENIS TECHNOLOGIES, L.P., priority 2017, dated 2021)",
  "system": "Biofilms grown on stainless steel 316 coupons",
  "test": "biofilm reduction on stainless steel 316 coupons from CDC Biofilm reactor, viable cell plating",
  "assay_type": "cell-based",
  "conditions": "two hours at 28° C. with shaking",
  "protocol": "Biofilms were grown on stainless steel 316 coupons in a CDC Biofilm reactor using […] minimal salts growth media for a period of twenty-four hours. […] A control was done with […] media. After the biofilms were grown, each coupon from the rods in the CDC reactor was unscrewed and dropped into a well of the plate. The plate was then incubated for two hours at 28° C. with shaking. Following the incubation, the coupons were removed from the wells and placed into 5 mL of phosphate-buffered saline (PBS) and sonicated for six minutes. Viable cells released into the fluid were then determined by a plating method. The results are recorded as the percent reduction in cell counts relative to the control.",
  "data": [
    {"substance": "sodium dodecylbenzene sulfonate [Biosoft D-40]", "values": [
      {"measurement": "percent reduction in cell counts relative to the control", "setting": "LAS 40 ppm actives", "value": 41.83, "unit": "%"},
      {"measurement": "percent reduction in cell counts relative to the control", "setting": "LAS 100 ppm actives", "value": 81.58, "unit": "%"}
    ]}
  ]
}
